Tests used:
Smoothened (SMO) [1] = target: Smoothened (SMO) (Homo sapiens, UniProt Q99835); assay: BODIPY-cyclopamine competition binding in SMO-transfected HeLa cells; assay type: cell-based
Smoothened (SMO) [2] = target: Smoothened (SMO) (Mus musculus, UniProt P56726); assay: as above; assay type: cell-based
Chain of Smoothened (SMO) (Mus musculus, UniProt P56726) (P56726 33-793): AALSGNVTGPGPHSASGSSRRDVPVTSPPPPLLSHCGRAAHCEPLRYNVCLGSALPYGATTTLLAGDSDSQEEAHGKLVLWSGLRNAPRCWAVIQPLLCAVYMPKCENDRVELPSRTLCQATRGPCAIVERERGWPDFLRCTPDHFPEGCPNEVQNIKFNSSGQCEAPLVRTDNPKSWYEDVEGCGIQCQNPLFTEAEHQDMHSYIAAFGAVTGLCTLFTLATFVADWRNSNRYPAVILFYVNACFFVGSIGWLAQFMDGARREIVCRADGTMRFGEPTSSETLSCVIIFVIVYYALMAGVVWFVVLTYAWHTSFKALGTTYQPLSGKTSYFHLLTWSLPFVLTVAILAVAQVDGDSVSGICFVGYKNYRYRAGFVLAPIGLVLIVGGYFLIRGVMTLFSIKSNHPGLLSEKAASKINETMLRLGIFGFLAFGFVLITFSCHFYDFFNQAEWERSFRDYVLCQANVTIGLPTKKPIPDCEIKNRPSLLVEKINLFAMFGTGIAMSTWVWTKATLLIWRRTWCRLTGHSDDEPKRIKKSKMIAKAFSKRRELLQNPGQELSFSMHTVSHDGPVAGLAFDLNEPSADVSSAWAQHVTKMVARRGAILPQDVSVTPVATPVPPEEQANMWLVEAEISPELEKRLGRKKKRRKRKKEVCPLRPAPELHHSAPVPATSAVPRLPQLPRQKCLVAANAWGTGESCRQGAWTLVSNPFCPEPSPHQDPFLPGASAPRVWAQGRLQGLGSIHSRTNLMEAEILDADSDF

Chain of Smoothened (SMO) (Homo sapiens, UniProt Q99835) (Q99835 28-787): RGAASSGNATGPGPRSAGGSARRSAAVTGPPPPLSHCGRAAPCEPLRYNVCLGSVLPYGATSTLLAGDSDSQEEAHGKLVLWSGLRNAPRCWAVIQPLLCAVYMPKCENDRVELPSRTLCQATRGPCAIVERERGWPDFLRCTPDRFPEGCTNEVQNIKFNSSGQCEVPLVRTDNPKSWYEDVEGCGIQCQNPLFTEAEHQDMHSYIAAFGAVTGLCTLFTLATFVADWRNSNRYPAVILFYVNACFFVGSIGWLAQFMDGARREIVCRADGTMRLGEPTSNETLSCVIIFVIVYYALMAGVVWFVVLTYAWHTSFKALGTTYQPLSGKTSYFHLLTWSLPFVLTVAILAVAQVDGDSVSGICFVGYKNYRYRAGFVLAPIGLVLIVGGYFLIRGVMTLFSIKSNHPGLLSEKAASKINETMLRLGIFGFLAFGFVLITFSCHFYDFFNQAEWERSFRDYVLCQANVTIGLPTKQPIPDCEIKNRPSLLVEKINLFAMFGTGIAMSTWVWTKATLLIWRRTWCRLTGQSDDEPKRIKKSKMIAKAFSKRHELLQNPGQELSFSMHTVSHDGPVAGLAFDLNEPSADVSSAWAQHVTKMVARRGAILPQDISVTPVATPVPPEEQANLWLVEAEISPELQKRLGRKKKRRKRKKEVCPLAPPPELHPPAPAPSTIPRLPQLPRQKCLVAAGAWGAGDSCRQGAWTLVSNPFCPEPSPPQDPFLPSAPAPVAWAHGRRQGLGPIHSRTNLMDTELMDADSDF

Question: Which Kd (Smoothened (SMO) [1]) does the source give for `CC1=C2C[C@H]3[C@@H](CC=C4CC(=O)CC[C@@]43C)[C@@H]2CC[C@]12O[C@@H]1C[C@H](C)CN(CCNC(=O)CCCCCNC(=O)CCc3ccccc3)[C@H]1[C@H]2C` [KAAD-cyclopamine] here?
Answer: The Kd was 0.8 nM.

Question: And the Kd (Smoothened (SMO) [2])?
Answer: Its Kd is 2 nM.

From PMC3685283 (Molecular cancer research : MCR, 2012)
